# According to the supplement of paper PMC10307832:
# How the values were obtained:
# Assay in all cases: relative viability (nuclei count vs DMSO), 5 days (fraction); higher = more cells survive
# [1] = test system: A549
# How it was run: (§1)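 Cells from lung cancer lines were seeded into 1536-well plates and, one day later, dosed by pin tool. Treatments were either a single drug or a fixed dose of an anchor drug with five library-drug doses (not always all listed) in √10 steps. After 5 days, nuclei were stained in a one-step fixation (final 0.05% Triton X-100, 1% formaldehyde, 1 ug/ml Hoechst) and counted on 4× images, and relative viability is the treated-to-vehicle nuclei ratio, as the median of duplicate plates.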
# [2] = test system: LK-2
# How it was run: as §1
# [3] = test system: Calu-6
# How it was run: as §1
# [4] = test system: NCI-H1703
# How it was run: as §1
# [5] = test system: NCI-H1299
# How it was run: as §1
# [6] = test system: NCI-H1734
# How it was run: as §1
# [7] = test system: CAL-12T
# How it was run: as §1
# [8] = test system: A-427
# How it was run: as §1
# [9] = test system: NCI-H2009
# How it was run: as §1
# [10] = test system: UMC-11
# How it was run: as §1
# [11] = test system: EBC-1
# How it was run: as §1
# [12] = test system: IA-LM
# How it was run: as §1
compound,measurement,setting,value
Nc1ccn([C@@H]2O[C@H](CO)[C@@H](O)[C@@H]2O)c(=O)n1 [Cytarabine] + Cc1nc(NC(=O)N2CCC[C@H]2C(N)=O)sc1-c1ccnc(C(C)(C)C(F)(F)F)c1 [Alpelisib] (partner 2 µM),relative viability,[1]; first compound 0.005 µM,0.596
same,relative viability,[1]; first compound 0.01581 µM,0.479
same,relative viability,[1]; first compound 0.05 µM,0.399
same,relative viability,[1]; first compound 0.1581 µM,0.0482
same,relative viability,[1]; first compound 0.5 µM,0.0328
same,relative viability,[2]; first compound 0.005 µM,0.641
same,relative viability,[2]; first compound 0.01581 µM,0.716
same,relative viability,[2]; first compound 0.05 µM,0.381
same,relative viability,[2]; first compound 0.1581 µM,0.276
same,relative viability,[2]; first compound 0.5 µM,0.245
same,relative viability,[3]; first compound 0.005 µM,0.925
same,relative viability,[3]; first compound 0.01581 µM,0.826
same,relative viability,[3]; first compound 0.05 µM,0.79
same,relative viability,[3]; first compound 0.1581 µM,0.483
same,relative viability,[3]; first compound 0.5 µM,0.288
same,relative viability,[4]; first compound 0.005 µM,0.294
same,relative viability,[4]; first compound 0.01581 µM,0.22
same,relative viability,[4]; first compound 0.05 µM,0.194
same,relative viability,[4]; first compound 0.1581 µM,0.117
same,relative viability,[4]; first compound 0.5 µM,0.143
same,relative viability,[5]; first compound 0.005 µM,1.13
same,relative viability,[5]; first compound 0.01581 µM,1.21
same,relative viability,[5]; first compound 0.05 µM,1.13
same,relative viability,[5]; first compound 0.1581 µM,1
same,relative viability,[5]; first compound 0.5 µM,1.06
same,relative viability,[6]; first compound 0.005 µM,0.39
same,relative viability,[6]; first compound 0.01581 µM,0.265
same,relative viability,[6]; first compound 0.05 µM,0.204
same,relative viability,[6]; first compound 0.1581 µM,0.139
same,relative viability,[7]; first compound 0.005 µM,1.25
same,relative viability,[7]; first compound 0.01581 µM,1.44
same,relative viability,[7]; first compound 0.05 µM,1.1
same,relative viability,[7]; first compound 0.1581 µM,0.514
same,relative viability,[7]; first compound 0.5 µM,0.201
same,relative viability,[8]; first compound 0.005 µM,0.823
same,relative viability,[8]; first compound 0.01581 µM,0.518
same,relative viability,[8]; first compound 0.05 µM,0.226
same,relative viability,[8]; first compound 0.1581 µM,0.155
same,relative viability,[8]; first compound 0.5 µM,0.14
same,relative viability,[9]; first compound 0.005 µM,1.14
same,relative viability,[9]; first compound 0.01581 µM,1.13
same,relative viability,[9]; first compound 0.05 µM,1.26
same,relative viability,[9]; first compound 0.1581 µM,0.937
same,relative viability,[9]; first compound 0.5 µM,0.473
same,relative viability,[10]; first compound 0.005 µM,0.496
same,relative viability,[10]; first compound 0.01581 µM,0.463
same,relative viability,[10]; first compound 0.05 µM,0.375
same,relative viability,[10]; first compound 0.1581 µM,0.192
same,relative viability,[10]; first compound 0.5 µM,0.18
same,relative viability,[11]; first compound 0.005 µM,0.694
same,relative viability,[11]; first compound 0.01581 µM,0.64
same,relative viability,[11]; first compound 0.05 µM,0.676
same,relative viability,[11]; first compound 0.1581 µM,0.439
same,relative viability,[11]; first compound 0.5 µM,0.248
same,relative viability,[12]; first compound 0.005 µM,0.784
same,relative viability,[12]; first compound 0.01581 µM,0.591
same,relative viability,[12]; first compound 0.05 µM,0.701
same,relative viability,[12]; first compound 0.1581 µM,0.259
same,relative viability,[12]; first compound 0.5 µM,0.114
